Reference: US8779151B2, “Orally bioavailable caffeic acid related anticancer drugs” (The Board of Regents of the University of Texas System, priority 2006, dated 2014)

Experiments:
U373-MG cells = details: cited from earlier work
U87-MG cells = details: cited from earlier work
[1] = system: human malignant glioma U87-MG and U373-MG cells; details: cited from earlier work
[2] = system: constitutively activated STAT3 in Colo357-FG cells; experiment: Western blot of phosphorylated STAT3 (Tyr705) and total STAT3 in Colo357-FG cells (FIG. 1); format: cell-based, human
Text: Cultured pancreatic cancer cells treated with different times and concentrations of WP compounds or DMSO (solvent) were lysed in lysis buffer and equal amounts of protein extracts were fractionated by sodium dodecyl sulfate polyacrylamide gel electrophoresis and transferred to Hybond-P membranes. Membranes were immuno-blotted using phospho-specific STAT3, total STAT3, Bcl-xL, survivin, PARP, caspase-8 and GADPH antibodies. The primary antibodies were visualized with goat anti-rabbit or goat anti-mouse peroxidase-conjugated antibodies using an enhanced […] (ECF) system and a Molecular Dynamics Storm PhosphorImager.

[3] = system: subcutaneous malignant glioma xenografts; details: cited from earlier work
STAT3 = experiment: Inhibition of STAT3 phosphorylation, WP1193 compared with WP1066 (FIG. 34); format: cell-based

Compound	IC50 (U373-MG cells) [µM]	increase in potency over that of AG490 (U373-MG cells; versus AG490)	IC50 (U87-MG cells) [µM]	increase in potency over that of AG490 (U87-MG cells; versus AG490) [fold]	Bax, c-myc, Bcl-XL, Mcl-1 and apoptosis [1]	inhibition of constitutively activated STAT3 (phospho-Tyr705 versus total STAT3) [2]	phosphorylated STAT3 levels in excised tumors (immunohistochemical analysis) ([3]; 3 weeks after the final WP1066 injection, versus control group)	growth of subcutaneous malignant glioma xenografts ([3]; mice, systemic intraperitoneal administration, 30-day follow-up period)	inhibition of STAT3 phosphorylation relative to WP1066 (STAT3)
C[C@H](NC(=O)/C(C#N)=C/c1cccc(Br)n1)c1ccccc1 [WP1066]	3.7	eightfold	5.6	18	activated Bax, suppressed the expression of c-myc, Bcl-XL and Mcl-1, and induced apoptosis	Inhibition of constitutively activated STAT3	remained inhibited	significantly (P<0.001) inhibited the growth	
N#C/C(=C\c1cccc(Br)n1)C(=O)N[C@H](c1ccccc1)C1CC1 [WP1193, (E)-3-(6-bromopyridin-2-yl)-2-cyano-N-((S)-cyclopropyl(phenyl)methyl)acrylamide]						Inhibition of constitutively activated STAT3			more potently than WP1066
